Test results reported in US11634425B2, “Pharmaceutical compounds” (priority 2019, dated 2023).
≈ marks a conversion by molar mass, not a printed value. Read-outs that look alike come from different tables or passages of the source.

How the values were obtained:
RSV A2 = assay: RSV plaque reduction assay; type: cell-based, respiratory syncytial virus (RSV); conditions: mean of at least two experiments
Method in brief: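 RSV A2 at 100 PFU/well was premixed with eight compound dilutions and added to confluent Hep-G2 monolayers for 2 h at 37 °C. Cells were then kept 2 days under a DMEM/2% FBS/0.8% CMC overlay containing compound. Immunostained plaques were counted relative to virus controls, and EC50 came from 4-parameter fits, averaged over at least two experiments.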

Hep-G2 cells = assay: Cell cytotoxicity (CC50); type: cell-based; conditions: mean of at least two experiments
Method in brief: (§1)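 Values are means of ≥2 independent runs, rounded to whole units, from 4-parameter variable-slope curve fits. Toxicity measured in Hep-G2 cells run alongside RSV plaque-reduction assays.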

in vitro [1] = type: in vitro ADME; conditions: 1 μM compound, 0.5 mg/mL protein; for half-life at 1 μM: microsomes, pH 7.4, read-out: Liver Microsomal Stability t1/2
Method in brief: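 Pooled liver microsomes (0.5 mg/mL protein) in 0.1 M phosphate pH 7.4 with 1 μM compound and 1 mM NADPH at 37° C., sampled at 0–45 min; minus-NADPH control at 45 min. Acetonitrile quench, LC-MS/MS; t1/2 and CLint from ln peak-area ratio vs time slope.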

Cell cytotoxicity (CC50) = type: cell-based; conditions: human; mean of at least two experiments
Method in brief: as §1

Thermodynamic solubility = type: physicochemical; conditions: aqueous buffer, thermodynamic from solid; typically phosphate buffered saline pH 7.4, ambient temperature overnight
Experimental: Test compound (2.5 mg of solid; n=1) was weighed in an amber glass vial and buffer (0.5 mL) was added (typically phosphate buffered saline pH 7.4). The solution was agitated at ambient temperature overnight using a vial roller system. The solution was then filtered (0.45 μm pore size; without pre-saturation). Duplicate aliquots (50 μL) are sampled from the filtrate and diluted with one volume of Milli-Q water and methanol (1:1 v/v) before analysis by HPLC-UV. A standard was prepared in DMSO at 10 mg/mL (n=1) which was then diluted 10-fold in Milli-Q water and methanol (1:1 v/v) to give a 1 mg/mL solution. The concentration of test compound in the filtrate was quantified relative to the concentration standard. Analysis was performed using a gradient HPLC-MS system.

in vitro [2] = type: in vitro ADME; conditions: hepatocytes, 3 μM compound, read-out: Liver Hepatocyte Stability t1/2
Experimental: Compounds were subjected to the following assays to investigate liver microsomal stability and hepatocyte stability.
Hepatocyte Incubation: Experimental Procedure
Cryopreserved pooled hepatocytes were purchased from a reputable commercial supplier and stored in liquid nitrogen prior to use. Williams E media supplemented with 2 mM L-glutamine and 25 mM HEPES and test compound (final substrate concentration 3 μM; final DMSO concentration 0.25%) are pre-incubated at 37° C. prior to the addition of a suspension of cryopreserved hepatocytes (final cell density 0.5×10^6 viable cells/mL in Williams E media supplemented with 2 mM L-glutamine and 25 mM HEPES) to initiate the reaction. The final incubation volume is 500 μL. Two control compounds were included with each species, alongside appropriate vehicle control. The reactions are stopped by transferring 50 μL of incubate to 100 μL acetonitrile containing internal standard at the appropriate time points. Samples were removed at 6 time points (0, 5, 15, 30, 45 and 60 min) over the course of a 60 min experiment. The termination plates are centrifuged at 2500 rpm at 4° C. for 30 min to precipitate the protein. Following protein precipitation, the sample supernatants were combined in cassettes of up to 4 compounds and analysed using generic LC-MS/MS conditions. From a plot of ln peak area ratio (compound peak area/internal standard peak area) against time, the gradient of the line is determined. Subsequently, half-life (t1/2) and intrinsic clearance (CLint) were calculated.

in vivo = type: in vivo; conditions: male Beagle dog
Experimental: The pharmacokinetics of compounds were studied in vivo in dogs at doses of 0.5 mg/kg (IV) and 4 mg/kg (PO).
Male Beagle dogs were treated with experimental compounds via intravenous administration (n=2; 0.5 mg/kg) or oral administration (n=2; 3 or 4 mg/kg). Compounds were formulated as a solution in 20% dimethylacetamide/80% (2-hydroxypropyl)-β-cyclodextrin (20% w/v) (IV administration) or a solution in 10% dimethylacetamide/90% (2-hydroxypropyl)-β-cyclodextrin (20% w/v) (PO administration). […] Serial blood samples were collected from the jugular vein at 0.03, 0.08, 0.25, 0.5, 1, 2, 4, 6, 8 and 24 h post IV dosing of compound, and at 0.08, 0.25, 0.5, 1, 2, 4, 6, 8 and 24 h post oral dosing of compound, and plasma was prepared by centrifugation and stored immediately at −80° C. Samples were subsequently thawed, prepared for analysis by protein precipitation with acetonitrile, and analysed by tandem LCMS using electrospray ionisation using a matrix-matched calibration curve. PK parameters were calculated from the resulting data.

RSV = conditions: Antimicrobial Agents and Chemotherapy, September 2007, 3346-3353; cited from earlier work
[3] = human respiratory syncytial virus, HepG2, Hep-G2 cells

With “2-[2-Methyl-6-(propan-2-ylamino)pyridin-3-yl]-N-[(3S)-9-fluoro-2-oxo-5-phenyl-1,3-dihydro-1,4-benzodiazepin-3-yl]pyrazolo[1,5-a]pyrimidine-3-carboxamide [Example 61]” the EC50 (RSV A2; Hep-G2 cells) was 0.025 µM, the CC50 (Hep-G2 cells) was over 25 µM and the “Liver Microsomal Stability t1/2” value (in vitro [1]; dog) was 0.392 h. The “Liver Microsomal Stability t1/2” value (in vitro [1]; human) was 2.2 h and the “Liver Microsomal Stability t1/2” value (in vitro [1]; rat) was 1.07 h.

In the case of “2-[4-Methyl-6-(propan-2-ylamino)pyridin-3-yl]-N-[(3S)-9-fluoro-2-oxo-5-phenyl-1,3-dihydro-1,4-benzodiazepin-3-yl]pyrazolo[1,5-a]pyrimidine-3-carboxamide [Example 62]”, the EC50 (RSV A2; Hep-G2 cells) is reported as 0.074 µM, the CC50 (Hep-G2 cells) is reported as over 25 µM and the “Liver Microsomal Stability t1/2” value (in vitro [1]; dog) is reported as 0.828 h. The “Liver Microsomal Stability t1/2” value (in vitro [1]; human) was over 2.33 h and the “Liver Microsomal Stability t1/2” value (in vitro [1]; rat) was 1.19 h.

With `Cc1nc2ccc(Cl)nn2c1C(=O)N[C@H]1N=C(c2ccccc2)c2cccc(F)c2NC1=O` [Example 20, 6-Chloro-N-[(3S)-9-fluoro-2-oxo-5-phenyl-1,3-dihydro-1,4-benzodiazepin-3-yl]-2-methylimidazo[1,2-b]pyridazine-3-carboxamide] the EC50 (RSV A2; [3]) was 0.114 µM, the CC50 (Cell cytotoxicity (CC50)) was over 25 µM and the solubility thermodynamic (Thermodynamic solubility) was 3.84 µM (≈ 1.78 µg/mL). It also gave a half-life at 1 μM (in vitro [1]; dog) of over 2.33 h, a half-life at 1 μM (in vitro [1]; human) of over 2.33 h and a half-life at 1 μM (in vitro [1]; rat) of 1.68 h. The half-life at 3 μM (in vitro [2]; dog) was 2.2 h, the half-life at 3 μM (in vitro [2]; human) was 2.18 h and the half-life at 3 μM (in vitro [2]; rat) was 2.92 h. It also gave a Vd (in vivo; in vivo, IV 0.5 mg/kg) of 1.2 L/kg, a clearance (in vivo; in vivo, IV 0.5 mg/kg) of 0.096 L/h/kg and a Cmax (in vivo; in vivo, IV 0.5 mg/kg / PO 3 or 4 mg/kg study) of 3.85 µg/mL. The half-life (in vivo; in vivo, IV 0.5 mg/kg, read-out: IV t1/2 (converted)) was 10.3 h, the AUC(0-t) (in vivo; in vivo, PO 3 or 4 mg/kg, read-out: PO AUClast) was 43.7 µg·h/mL and the half-life (in vivo; in vivo, PO 3 or 4 mg/kg, read-out: PO t1/2 (converted)) was 19.2 h. For the same compound, the “C 8 h” value (in vivo; 8 h, IV 0.5 mg/kg / PO 3 or 4 mg/kg study) was 1.581 µg/mL and the F (in vivo; IV 0.5 mg/kg, PO 3 or 4 mg/kg) was 118%.

Compound `Cc1nc2ccc(Cl)nn2c1C(=O)N[C@H]1N=C(c2ccccc2)c2ccccc2NC1=O` [Example 21, 6-Chloro-2-methyl-N-[(3S)-2-oxo-5-phenyl-1,3-dihydro-1,4-benzodiazepin-3-yl]imidazo[1,2-b]pyridazine-3-carboxamide] has an EC50 (RSV A2; [3]) of 0.147 µM, a CC50 (Cell cytotoxicity (CC50)) of over 25 µM and a solubility thermodynamic (Thermodynamic solubility) of 4.64 µM (≈ 2.06 µg/mL). It also gave a half-life at 1 μM (in vitro [1]; dog) of 2.95 h, a half-life at 1 μM (in vitro [1]; human) of 2.15 h and a half-life at 1 μM (in vitro [1]; rat) of 1.04 h. The half-life at 3 μM (in vitro [2]; dog) was 2.55 h, the half-life at 3 μM (in vitro [2]; human) was 2.52 h and the half-life at 3 μM (in vitro [2]; rat) was 1.5 h.

For `O=C(N[C@H]1N=C(c2ccccc2)c2cccc(F)c2NC1=O)c1c(-c2ccc3[nH]ncc3c2)nc2cccnn12` [Example 126, N-[(3S)-9-fluoro-2-oxo-5-phenyl-1,3-dihydro-1,4-benzodiazepin-3-yl]-2-(1H-indazol-5-yl)imidazo[1,2-b]pyridazine-3-carboxamide], the EC50 (RSV A2; Hep-G2 cells) was 0.056 µM, the CC50 (Hep-G2 cells) was over 25 µM and the “Liver Microsomal Stability t1/2” value (in vitro [1]; dog) was 0.563 h. The “Liver Microsomal Stability t1/2” value (in vitro [1]; human) was 5.2 h and the “Liver Microsomal Stability t1/2” value (in vitro [1]; rat) was 6.88 h.

For `O=C(Nc1ccccc1F)N[C@H]1N=C(c2ccccc2)c2ccccc2NC1=O` [RSV604], the anti-RSV activity (RSV) is given as “sub-micromolar”.

With “N-[(3S)-9-Fluoro-2-oxo-5-phenyl-1,3-dihydro-1,4-benzodiazepin-3-yl]-2-(2-fluorophenyl)-7-methylpyrazolo[1,5-a]pyrimidine-3-carboxamide [Example 38]” the EC50 (RSV A2; Hep-G2 cells) was 0.027 µM, the CC50 (Hep-G2 cells) was over 25 µM and the “Liver Microsomal Stability t1/2” value (in vitro [1]; dog) was 2.75 h. For the same compound, the “Liver Microsomal Stability t1/2” value (in vitro [1]; human) was over 2.33 h and the “Liver Microsomal Stability t1/2” value (in vitro [1]; rat) was 1.98 h.
